Where “and” joins values, the source holds several entries; their conditions need not be identical. Equal entries are not always repeated.
Key:
Lewis rats, CIA model = assay: Collagen-induced semi-established arthritis model in rats; type: in vivo, rat
Experimental: Rat CIA model was performed was performed at Pharmenterprises, Russia and approved by Ethics Committee of Pharmenterprises. Female Lewis rats with body weight of 164–183 g (Charles River Laboratories, Inc., Wilmington, MA) were injected with porcine type II collagen (Chondrex) emulsified with Freund’s Incomplete Adjuvant (Sigma Aldrich) at two sites at the base of the tail according to standard protocol. On day 7, the rats were boosted with a second subcutaneous injection. On day 6 of the study, rats were randomized by body weight into six groups: a control group of four, and five treatment groups of eight. […] Disease progression was monitored via daily ankle thickness measurements. At study termination on day 16 rats were anesthetized with Isoflurane, bled by vacutainer through the descending aorta to exsanguinate and then euthanized for tissue collection. Hind paws were transected at the level of the medial and lateral malleolus, weighed, and collected for microscopy.
[…]

DYRK4 = target: T1, DYRK4 (Homo sapiens, UniProt Q9NR20); assay: Kinase selectivity profile assay; type: biochemical; details: 500 nM; relative to DMSO; read-out: Residual enzymatic activity
T1 construct: purchased Reaction Biology Corporation
T1 sequence (Q9NR20 whole entry): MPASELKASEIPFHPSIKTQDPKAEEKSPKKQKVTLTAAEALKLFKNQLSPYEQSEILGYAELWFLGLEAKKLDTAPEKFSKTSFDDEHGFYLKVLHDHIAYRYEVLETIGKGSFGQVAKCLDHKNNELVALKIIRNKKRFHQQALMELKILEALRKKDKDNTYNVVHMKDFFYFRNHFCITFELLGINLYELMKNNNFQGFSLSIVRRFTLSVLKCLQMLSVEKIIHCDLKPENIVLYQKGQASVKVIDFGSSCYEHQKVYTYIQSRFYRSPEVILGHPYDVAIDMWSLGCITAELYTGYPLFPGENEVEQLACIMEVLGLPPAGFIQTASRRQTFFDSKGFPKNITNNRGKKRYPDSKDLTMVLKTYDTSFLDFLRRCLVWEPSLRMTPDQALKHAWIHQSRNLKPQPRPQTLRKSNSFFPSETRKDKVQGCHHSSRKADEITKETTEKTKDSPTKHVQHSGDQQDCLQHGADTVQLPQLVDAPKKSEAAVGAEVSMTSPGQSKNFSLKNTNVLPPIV
Experimental: The activity of MT-SYK-03 against cSrc kinase and selectivity profile towards other 341 kinases was determined at Reaction Biology Corporation (Malvern, PA, USA) using the standard kinase assay protocol. […] Kinase activity data was expressed as the percent remaining kinase activity in test samples compared to vehicle (dimethyl sulfoxide) reactions based on the radioactivity of reaction products (see Table S2). Experiment was replicated twice.

mongrel rats, AIA model = assay: Adjuvant-induced arthritis in rats; type: in vivo
Experimental: Rat adjuvant-induced arthritis (AIA) model was performed at Pharmenterprises, Russia as described previously^3 and approved by Ethics Committee of Pharmenterprises. Male 10 week old mongrel rats were divided into eleven groups: negative control (#1), positive control (#2) and nine treatment groups (#3–11), ten […] in each group. Group #1 was left intact, while subplantar injection of 0.1 mL of Complete Freund’s adjuvant (CFA, Sigma) was made on day 0 at right paws of rats in groups […]. […] Disease progression was monitored by measuring volumes of the right (involved) and left (non-involved) paws on days 0, 14, 18, 21, 25, and 28.

c-Src = target: T2, c-Src (Homo sapiens, UniProt P12931); assay: cSrc inhibition and kinase selectivity profile assay; type: biochemical
T2 construct: purchased Reaction Biology Corporation (assay service)
T2 sequence (P12931 whole entry): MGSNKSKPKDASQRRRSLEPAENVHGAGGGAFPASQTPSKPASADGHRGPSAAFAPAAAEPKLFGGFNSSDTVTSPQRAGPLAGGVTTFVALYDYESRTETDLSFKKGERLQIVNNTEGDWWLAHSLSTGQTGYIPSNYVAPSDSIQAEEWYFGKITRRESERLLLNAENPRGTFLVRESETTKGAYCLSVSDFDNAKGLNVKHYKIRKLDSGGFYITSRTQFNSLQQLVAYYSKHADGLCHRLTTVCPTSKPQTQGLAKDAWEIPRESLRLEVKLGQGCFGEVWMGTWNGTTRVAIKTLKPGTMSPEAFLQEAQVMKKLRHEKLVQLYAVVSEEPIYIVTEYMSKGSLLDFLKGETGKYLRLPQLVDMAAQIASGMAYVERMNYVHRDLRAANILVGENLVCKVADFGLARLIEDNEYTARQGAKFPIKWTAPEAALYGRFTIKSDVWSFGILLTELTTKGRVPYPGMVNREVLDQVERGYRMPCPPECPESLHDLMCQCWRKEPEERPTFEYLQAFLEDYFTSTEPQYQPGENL
Experimental: The activity of MT-SYK-03 against cSrc kinase and selectivity profile towards other 341 kinases was determined at Reaction Biology Corporation (Malvern, PA, USA) using the standard kinase assay protocol. […]; unbound phosphate was removed by extensive washing of filters in phosphoric acid. Kinase activity data was expressed as the percent remaining kinase activity in test samples compared to vehicle (dimethyl sulfoxide) reactions based on the radioactivity of reaction products (see Table S2). Experiment was replicated twice.

[1] = knee, day 16, MT-SYK-03 207 mg/kg PO BID + MTX Veh PO QD, individual joint (animal, R/L), 207 mg/kg
[2] = knee, day 16, MT-SYK-03 207 mg/kg PO BID + MTX Veh PO QD, vs vehicle

COc1cc(Nc2ncnc(Nc3cc4c(cn3)NC(=O)C(C)(C)O4)n2)cc(OC)c1OC [MT-SYK-03]
Summed Histopathology Scores, Mean (Lewis rats, CIA model; knee, day 16, MT-SYK-03 207 mg/kg PO BID + MTX Veh PO QD, group mean): 2.63 | Bone Resorption score (0=normal to 5=severe) (Lewis rats, CIA model; [1]): 0.5 and 1 and 0 | Cartilage Damage score (0=normal to 5=severe) (Lewis rats, CIA model; [1]): 1 and 0 and 0.5 | Inflammation score (0=normal to 5=severe) (Lewis rats, CIA model; [1]): 4 and 1 and 0 and 2 and 3 and 0.5 | Pannus score (0=normal to 5=severe) (Lewis rats, CIA model; [1]): 0.5 and 1 and 0 | Summed Histopathology Scores (Lewis rats, CIA model; [1]): 6 and 7 and 2.5 and 0 and 3 and 4.5 and 2 and 5 and 5.5 and 3.5 and 0.5 | Bone Resorption score, ANOVA to Vehicle (Lewis rats, CIA model; knee, day 16, MT-SYK-03 207 mg/kg PO BID + MTX Veh PO QD, p value): p < 0.05 | Bone Resorption score, % inhibition (Lewis rats, CIA model; [2]): 78% | Cartilage Damage score, % inhibition (Lewis rats, CIA model; [2]): 57% | Inflammation score, % inhibition (Lewis rats, CIA model; [2]): 50% | Pannus score, % inhibition (Lewis rats, CIA model; [2]): 46% | Summed Histopathology Scores, % inhibition (Lewis rats, CIA model; [2]): 56% | Histopathology scores for cartilage damage and bone resorption, ankles and knees (Lewis rats, CIA model; rat CIA, day 16): chondroprotective and antiresorptive effects | Histopathology scores of inflammation and pannus formation (Lewis rats, CIA model; rat CIA, day 16): smaller | Relative weights of thymus, liver and spleen (Lewis rats, CIA model; rat CIA, day 16): statistically identical across all groups | remaining activity at 0.5 µM (DYRK4): 104% | Animal death (mongrel rats, AIA model; MT-SYK-03 52 mg/kg BID intragastric, 14 days): 0% | Animal death (mongrel rats, AIA model; MT-SYK-03 52 mg/kg BID intragastric, 18 days): 0% | Animal death (mongrel rats, AIA model; MT-SYK-03 52 mg/kg BID intragastric, 21 days): 0% | Animal death (mongrel rats, AIA model; MT-SYK-03 52 mg/kg BID intragastric, 25 days): 0% | Animal death (mongrel rats, AIA model; MT-SYK-03 52 mg/kg BID intragastric, 28 days): 0% | Animal death (mongrel rats, AIA model; MT-SYK-03 103 mg/kg BID intragastric, 14 days): 0% | Animal death (mongrel rats, AIA model; MT-SYK-03 103 mg/kg BID intragastric, 18 days): 0% | Animal death (mongrel rats, AIA model; MT-SYK-03 103 mg/kg BID intragastric, 21 days): 0% | Animal death (mongrel rats, AIA model; MT-SYK-03 103 mg/kg BID intragastric, 25 days): 0% | Animal death (mongrel rats, AIA model; MT-SYK-03 103 mg/kg BID intragastric, 28 days): 0% | Animal death (mongrel rats, AIA model; MT-SYK-03 207 mg/kg QD intragastric, 14 days): 0% | Animal death (mongrel rats, AIA model; MT-SYK-03 207 mg/kg QD intragastric, 18 days): 0% | Animal death (mongrel rats, AIA model; MT-SYK-03 207 mg/kg QD intragastric, 21 days): 0% | Animal death (mongrel rats, AIA model; MT-SYK-03 207 mg/kg QD intragastric, 25 days): 0% | Animal death (mongrel rats, AIA model; MT-SYK-03 207 mg/kg QD intragastric, 28 days): 0% | The increase in the volume of the paws relative to the initial level (mongrel rats, AIA model; non-involved paws, MT-SYK-03 52 mg/kg BID intragastric, 18 days): 22.55±2.93& % | The increase in the volume of the paws relative to the initial level (mongrel rats, AIA model; non-involved paws, MT-SYK-03 52 mg/kg BID intragastric, 21 days): 23.66±3.25& % | The increase in the volume of the paws relative to the initial level (mongrel rats, AIA model; non-involved paws, MT-SYK-03 52 mg/kg BID intragastric, 25 days): 24.39±2.8& % | The increase in the volume of the paws relative to the initial level (mongrel rats, AIA model; non-involved paws, MT-SYK-03 52 mg/kg BID intragastric, 28 days): 25.25±2.86& % | The increase in the volume of the paws relative to the initial level (mongrel rats, AIA model; non-involved paws, MT-SYK-03 103 mg/kg BID intragastric, 14 days): 11.22±1.26& % | The increase in the volume of the paws relative to the initial level (mongrel rats, AIA model; non-involved paws, MT-SYK-03 103 mg/kg BID intragastric, 18 days): 17.42±1.16& % | The increase in the volume of the paws relative to the initial level (mongrel rats, AIA model; non-involved paws, MT-SYK-03 103 mg/kg BID intragastric, 21 days): 20.38±2.11& % | The increase in the volume of the paws relative to the initial level (mongrel rats, AIA model; non-involved paws, MT-SYK-03 103 mg/kg BID intragastric, 25 days): 22.35±2.28& % | The increase in the volume of the paws relative to the initial level (mongrel rats, AIA model; non-involved paws, MT-SYK-03 103 mg/kg BID intragastric, 28 days): 21.41±2.05&# % | The increase in the volume of the paws relative to the initial level (mongrel rats, AIA model; non-involved paws, MT-SYK-03 207 mg/kg QD intragastric, 14 days): 14.3±1.82& % | The increase in the volume of the paws relative to the initial level (mongrel rats, AIA model; non-involved paws, MT-SYK-03 207 mg/kg QD intragastric, 18 days): 19.97±1.89& % | The increase in the volume of the paws relative to the initial level (mongrel rats, AIA model; non-involved paws, MT-SYK-03 207 mg/kg QD intragastric, 21 days): 21.15±1.89& % | The increase in the volume of the paws relative to the initial level (mongrel rats, AIA model; non-involved paws, MT-SYK-03 207 mg/kg QD intragastric, 25 days): 22.51±1.61& % | The increase in the volume of the paws relative to the initial level (mongrel rats, AIA model; non-involved paws, MT-SYK-03 207 mg/kg QD intragastric, 28 days): 21.94±1.37&# % | The increase in the volume of the paws relative to the initial level (mongrel rats, AIA model; po, 52 mg/kg, 336 h): 13.93±1.83& % | Rats died (mongrel rats, AIA model; rat AIA, MT-SYK-03): 0% | Volume of non-involved paws (mongrel rats, AIA model; rat AIA, MT-SYK-03 103 and 207 mg/kg, day 28): decreased the volume of non-involved paws | The increase in the volume of the paws relative to the initial level (mongrel rats, AIA model; treated paws, MT-SYK-03 52 mg/kg BID intragastric, 14 days): 77.6 ± 4.53 & % | The increase in the volume of the paws relative to the initial level (mongrel rats, AIA model; treated paws, MT-SYK-03 52 mg/kg BID intragastric, 18 days): 85.72 ± 3.7 & % | The increase in the volume of the paws relative to the initial level (mongrel rats, AIA model; treated paws, MT-SYK-03 52 mg/kg BID intragastric, 21 days): 88.24 ± 4.4 & % | The increase in the volume of the paws relative to the initial level (mongrel rats, AIA model; treated paws, MT-SYK-03 52 mg/kg BID intragastric, 25 days): 94.75 ± 7.18 & % | The increase in the volume of the paws relative to the initial level (mongrel rats, AIA model; treated paws, MT-SYK-03 52 mg/kg BID intragastric, 28 days): 93.88 ± 6.77 & % | The increase in the volume of the paws relative to the initial level (mongrel rats, AIA model; treated paws, MT-SYK-03 103 mg/kg BID intragastric, 14 days): 76.18 ± 7.73 & % | The increase in the volume of the paws relative to the initial level (mongrel rats, AIA model; treated paws, MT-SYK-03 103 mg/kg BID intragastric, 18 days): 85.98 ± 7.51 & % | The increase in the volume of the paws relative to the initial level (mongrel rats, AIA model; treated paws, MT-SYK-03 103 mg/kg BID intragastric, 21 days): 86.55 ± 8.13 & % | The increase in the volume of the paws relative to the initial level (mongrel rats, AIA model; treated paws, MT-SYK-03 103 mg/kg BID intragastric, 25 days): 86.47 ± 7.89 & % | The increase in the volume of the paws relative to the initial level (mongrel rats, AIA model; treated paws, MT-SYK-03 103 mg/kg BID intragastric, 28 days): 89.02 ± 7.37 & % | The increase in the volume of the paws relative to the initial level (mongrel rats, AIA model; treated paws, MT-SYK-03 207 mg/kg QD intragastric, 14 days): 81.54 ± 6.88 & % | The increase in the volume of the paws relative to the initial level (mongrel rats, AIA model; treated paws, MT-SYK-03 207 mg/kg QD intragastric, 18 days): 82.92 ± 6.64 & % | The increase in the volume of the paws relative to the initial level (mongrel rats, AIA model; treated paws, MT-SYK-03 207 mg/kg QD intragastric, 21 days): 83.22 ± 6.53 & % | The increase in the volume of the paws relative to the initial level (mongrel rats, AIA model; treated paws, MT-SYK-03 207 mg/kg QD intragastric, 25 days): 88.58 ± 7.8 & % | The increase in the volume of the paws relative to the initial level (mongrel rats, AIA model; treated paws, MT-SYK-03 207 mg/kg QD intragastric, 28 days): 93.67 ± 9.08 & % | IC50 (c-Src): 14.2 nM and 23 to 40 nM and 14 nM | remaining activity at 0.5 µM (c-Src; 500 nM, relative to DMSO, read-out: Residual enzymatic activity): 6.2%

From article PMC8632988, “Inhibition of SYK and cSrc kinases can protect bone and cartilage in preclinical models of osteoarthritis and rheumatoid arthritis” (Scientific Reports, 2021)
